Consider one substance from PMC2361324, “Phase 1 trial of the antiangiogenic peptide ATN-161 (Ac-PHSCN-NH2), a beta integrin antagonist, in patients with solid tumours” (British Journal of Cancer, 2006).

Like-named read-outs stand apart in the source and are kept apart here.

The conditions of series [1]: except at extremely high, supratherapeutic doses, ref not given, cited from earlier work. From the text: These preclinical animal models included assessment of the effects of ATN-161 on tumour growth, metastasis, angiogenesis, tumour perfusion and circulating endothelial progenitor cells (CEPs) ([Donate et al, 2003]). […] We designed the phase 1 trial to evaluate a dose range in human beings (using well-established rules for interspecies dose conversi ...

Series [2] can be described thus: Urinary excretion and renal clearance in phase 1 trial. Type of series: in vivo, human. As to conditions: urine; for dose excreted: human, iv.
Protocol: Blood samples for PK analysis were collected in EDTA-coated tubes on Day 1 for all patients preinfusion, at the end of infusion, and at 5, 10, 15, 30, 45, 60, 90, 120, 150, 180, 240, 400, 460 and 520 min after infusion. Samples were immediately centrifuged, and the plasma was separated and stored at −20°C prior to analysis.
Pharmacokinetic data were modelled using a noncompartmental approach to estimate individual subject values for the following parameters: maximum observed concentration (Cmax), time of the maximum observed concentration (Tmax), volume of distribution at steady state (VSS), terminal elimination half-life (t1/2), total systemic clearance (CL), area under the plasma concentration-time curve (AUC), and CLr. For these parameters the mean and s.d. coefficient of variation were calculated.
Descriptive PKs parameters were determined by standard model independent methods for infusion administration ([Perrier and Gibaldi, 1982]) from plasma concentrations in each individual patient. Plasma and urine concentrations were rounded to the nearest [drawing 1] ng ml^−1 before the calculations. Plasma samples with concentrations below the quantifiable limit of 50.0 ng ml^−1 (BQL) were assigned values of zero for generation of mean and s.d. plasma concentrations. For PKs calculations, BQL was treated as zero up to the first quantifiable plasma concentration and then treated as an empty value thereafter. Urine samples reported as BQL (⩽50.0 ng ml^−1) were treated as zero for all calculations. Actual patient blood collection sampling times relative to the start of infusion were used for PKs calculations; however, scheduled collection times were used for urinary excretion data and graphical presentations of all data.
For series [3] the following is noted: animal studies, preclinical; ref not given; cited from earlier work.
The test system of the next series is MLL tumours. As to conditions: Copenhagen rats, ref Livant et al, 2000b, cited from earlier work.

As for Ac-PHSCN-NH2 [ATN-161, Ac-PHSCN-NH2], the “Toxicity in preclinical toxicology studies” value in series [1] (primates) and in series [1] (rats) was “no consistent evidence of ATN-161 toxicity” in each case. Further, in series [2] (almost all patients (23 of 26)), the “time after dose administration in which the majority of the dose was excreted” value is listed as ≤ 2 h. The dose excreted in series [2] (0.1 mg/kg, patients, 0.1 mg kg^−1 10-min i.v. infusion, Day 1, HPLC-MS/MS, cohort mean, read-out: Urinary excretion between 0 and 7 h as a percent of dose) amounted to 2.46%; in series [2] (0.25 mg/kg, patients, 0.25 mg kg^−1 10-min i.v. infusion, Day 1, HPLC-MS/MS, cohort mean, read-out: Urinary excretion between 0 and 7 h as a percent of dose), 13.8%; in series [2] (0.5 mg/kg, patients, 0.5 mg kg^−1 10-min i.v. infusion, Day 1, HPLC-MS/MS, cohort mean, read-out: Urinary excretion between 0 and 7 h as a percent of dose), 25.3%; in series [2] (1 mg/kg, patients, 1 mg kg^−1 10-min i.v. infusion, Day 1, HPLC-MS/MS, cohort mean, read-out: Urinary excretion between 0 and 7 h as a percent of dose), 1.82%; in series [2] (2 mg/kg, patients, 2 mg kg^−1 10-min i.v. infusion, Day 1, HPLC-MS/MS, cohort mean, read-out: Urinary excretion between 0 and 7 h as a percent of dose) it was 2.35%; in series [2] (4 mg/kg, patients, 4 mg kg^−1 10-min i.v. infusion, Day 1, HPLC-MS/MS, cohort mean, read-out: Urinary excretion between 0 and 7 h as a percent of dose), 2.36%. Further, the dose excreted in series [2] (8 mg/kg, patients, 8 mg kg^−1 10-min i.v. infusion, Day 1, HPLC-MS/MS, cohort mean, read-out: Urinary excretion between 0 and 7 h as a percent of dose) is 17.5%; in series [2] (16 mg/kg, patients, 16 mg kg^−1 10-min i.v. infusion, Day 1, HPLC-MS/MS, cohort mean, read-out: Urinary excretion between 0 and 7 h as a percent of dose) it was 15.3%; in series [2] (majority of the patients (20 of 26), all dose levels, urine 0-7 h, read-out: Urinary excretion, percent of administered dose) it was ~2%; in series [2] (remaining six of 26 patients, not associated with dose level, urine 0-7 h, read-out: Urinary excretion, percent of administered dose), 20 to 50%. The Immunogenicity entry in series [3] is reported as “not immunogenic”. The “Growth of primary MLL tumours” value in the series on MLL tumours (systemic 5 mg kg^−1, five injections over 16 days) is on record as “markedly reduced”. The “Ability of MLL tumour cells to metastasise” value in the series on MLL tumours is listed as “inhibited”.
